The text below walks through data of patent US10519115B2, “Antidiabetic tricyclic compounds” (Merck Sharp & Dohme Corp., priority 2013, dated 2019).

The target of assay [1] is T1, Human GPR40 (Homo sapiens, UniProt O14842). Briefly: FLIPR assay (agonist-induced calcium mobilization, GPR40/CHO NFAT BLA cells). Type of assay: cell-based. Set-up: expressed in transfected cells. On the procedure: (§1) Human and mouse GPR40 stable cell-lines were generated in CHO cells stably expressing NFAT BLA (Beta-lactamase). A human GPR40 stable cell-line was generated in HEK cells stably expressing the aequorin expressing reporter. The expression plasmids were transfected using lipofectamine (Life Technologies) following manufacturer's instructions. Stable cell-lines were generated following drug selection.
T1 sequence (O14842 whole entry): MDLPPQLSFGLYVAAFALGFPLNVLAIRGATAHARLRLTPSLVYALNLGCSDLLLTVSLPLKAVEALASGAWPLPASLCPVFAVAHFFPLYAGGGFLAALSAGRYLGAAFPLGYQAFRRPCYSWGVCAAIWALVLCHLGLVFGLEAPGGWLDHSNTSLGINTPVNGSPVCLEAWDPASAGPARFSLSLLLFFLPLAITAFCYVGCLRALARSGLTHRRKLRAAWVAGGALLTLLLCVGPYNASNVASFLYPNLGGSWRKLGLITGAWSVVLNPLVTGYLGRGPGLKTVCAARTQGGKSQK
FLIPR (Fluorimetric Imaging Plate Reader, Molecular Devices) assays were performed to measure agonist-induced calcium mobilization of the stable clones. For the FLIPR assay, one day before assay, GPR40/CHO NFAT BLA cells were seeded into black-wall-clear-bottom 384-well plates (Costar) at 1.4×10e4 cells/20 μL medium/well. The cells were incubated with 20 μl/well of the assay buffer (HBSS, 0.1% BSA, 20 mM HEPES, 2.5 mM probenecid, pH 7.4) containing 8 μM fluo-4, AM, 0.08% pluronic acid at room temperature for 100 minutes. Fluorescence output was measured using FLIPR. Compounds were dissolved in DMSO and diluted to desired concentrations with assay buffer. 13.3 μL/well of compound solution was added.

Assay [2] deals with T1, Human GPR40. Briefly: Inositol Phosphate Turnover Assay 1 (HEK cells stably expressing human GPR40). Type of assay: cell-based. Set-up: expressed in transfected cells; host or cells: HEK cells stably expressing the aequorin reporter. The conditions noted are these: HEK cells stably expressing human GPR40, 96-well, 3H-inositol; read-out: Human GPR40 IP1 Assay 1, EC50. On the procedure:
as §1
The assay was performed in 96-well format. HEK cells stably expressing human GPR40 were plated to be 60-80% confluent within 72 h. After 72 h, the plates were aspirated and the cells washed with inositol-free DMEM (ICN). The wash media was replaced with 150 μL of 3H-inositol labeling media (inositol-free media containing 0.4% human albumin or 0.4% mouse albumin, 1× pen/strep antibiotics, glutamine, 25 mM HEPES to which was added 3H-myo-inositol NEN #NET114A 1 mCi/mL, 25 Ci/mmol diluted 1:150 in loading media with a final specific radioactivity of 1 μCi/150 μL). Alternatively, the human and mouse albumin can be added after the overnight labeling step before the addition of LiCl.
The assay was typically run the next day after 18 h labeling. On the day of the assay, 5 μL of 300 mM LiCl was added to all wells and incubated at 37 degrees for 20 min. 0.75 μL of 200× compounds were added and incubated with the cells for 60 min at 37 degrees. The media was then aspirated off and the assay terminated with the addition of 60 μL 10 mM formic acid. The cells were lysed for 60 min at room temperature. 15-30 μL of lysate was mixed with 70 μL/1 mg YSi SPA beads (Amersham) in clear bottom Isoplates. The plates were shaken for 2 h at room temperature. Beads were allowed to settle and the plates were counted in the Wallac Microbeta.

Structures are written as SMILES. pEC50: −log10 of the molar value.

A word on the pEC50: it is the negative decadic logarithm of the EC50, by convention in mol/L. As for `CC1(O)CCN(c2ccc(-c3cc(COc4cc5c(cn4)[C@H]4[C@@H](C5)[C@@H]4C(=O)O)c(F)cc3C(F)(F)F)c(F)c2)CC1` [Compound-11, (5aR,6S,6aS)-3-((2′,4-difluoro-4′-(4-hydroxy-4-methylpiperidin-1-yl)-6-(trifluoromethyl)-[1,1′-biphenyl]-3-yl)methoxy)-5,5a,6,6a-tetrahydrocyclopropa[4,5]cyclopenta[1,2-c]pyridine-6-carboxylic acid], the pEC50 at Human GPR40 [1] is 8.25; on Human GPR40 [2] it was 8.17.

For the compound `C[C@]1(O)CC[C@H](Oc2c(F)cc(-c3cc(COc4cc5c(cn4)[C@H]4[C@@H](C5)[C@@H]4C(=O)O)c(F)cc3C(F)(F)F)cc2F)CC1` [Compound-3, (5aR,6S,6aS)-3-{[3′,4,5′-trifluoro-4′-(((1r,4r)-4-hydroxy-4-methylcyclohexyl)oxy)-6-(trifluoromethyl)-[1,1′-biphenyl]-3-yl]methoxy}-5,5a,6,6a-tetrahydrocyclopropa[4,5]cyclopenta[1,2-c]pyridine-6-carboxylic acid], the pEC50 was 8.43 at Human GPR40 [1] and 7.85 on Human GPR40 [2].

As to `CC(C)(O)Cn1cc2c(n1)CN(c1ccc(-c3cc(COc4cc5c(cn4)[C@H]4[C@@H](C5)[C@@H]4C(=O)O)c(F)cc3C(F)(F)F)c(F)c1)C2` [Compound-13, (5aR,6S,6aS)-3-((2′,4-difluoro-4′-(2-(2-hydroxy-2-methylpropyl)pyrrolo[3,4-c]pyrazol-5(2H,4H,6H)-yl)-6-(trifluoromethyl)-[1,1′-biphenyl]-3-yl)methoxy)-5,5a,6,6a-tetrahydrocyclo-propa[4,5]cyclopenta[1,2-c]pyridine-6-carboxylic acid], the results for the pEC50 on Human GPR40 [1] and on Human GPR40 [2] were 8.17 and 7.82, respectively.

As to `Cn1nnc(-c2ccc(-c3cc(COc4cc5c(cn4)[C@H]4[C@@H](C5)[C@@H]4C(=O)O)c(F)cc3C(F)(F)F)c(F)c2)n1` [Compound-7, (5aR,6S,6aS)-3-((2′,4-difluoro-4′-(2-methyl-2H-tetrazol-5-yl)-6-(trifluoromethyl)-[1,1′-biphenyl]-3-yl)methoxy)-5,5a,6,6a-tetrahydrocyclopropa[4,5]cyclopenta[1,2-c]pyridine-6-carboxylic acid], the negative logarithm of the EC50 (pEC50) on Human GPR40 [1] was 8.17; at Human GPR40 [2], 8.47.

`O=C(O)[C@H]1[C@@H]2Cc3cc(OCc4cc(-c5ccc(C6CCN(S(=O)(=O)C7CC7)CC6)cc5)c(C(F)(F)F)cc4F)ncc3[C@@H]21` [Compound-6, (5aR,6S,6aS)-3-((4′-(1-(cyclopropylsulfonyl)piperidin-4-yl)-4-fluoro-6-(trifluoromethyl)-[1,1′-biphenyl]-3-yl)methoxy)-5,5a,6,6a-tetrahydrocyclopropa[4,5]cyclopenta[1,2-c]pyridine-6-carboxylic acid]: the pEC50 was 8.38 at Human GPR40 [1] and 7.33 at Human GPR40 [2].

Consider `CC(C)(O)C1CCN(c2ccc(-c3cc(COc4cc5c(cn4)[C@H]4[C@@H](C5)[C@@H]4C(=O)O)c(F)cc3C(F)(F)F)c(F)c2)CC1` [Compound-12, (5aR,6S,6aS)-3-((2′,4-difluoro-4′-(4-(2-hydroxypropan-2-yl)piperidin-1-yl)-6-(trifluoromethyl)-[1,1′-biphenyl]-3-yl)methoxy)-5,5a,6,6a-tetrahydrocyclopropa[4,5]cyclopenta[1,2-c]-pyridine-6-carboxylic acid], for which the results for the pEC50 at Human GPR40 [1] and at Human GPR40 [2] were 8.21 and 7.70, respectively.

On to `CS(=O)(=O)N1CCC(c2ccc(-c3cc(COc4cc5c(cn4)[C@H]4[C@@H](C5)[C@@H]4C(=O)O)c(F)cc3C(F)(F)F)cc2)CC1` [Compound-5, (5aR,6S,6aS)-3-((4-fluoro-4′-(1-(methylsulfonyl)piperidin-4-yl)-6-(trifluoromethyl)-[1,1′-biphenyl]-3-yl)methoxy)-5,5a,6,6a-tetrahydrocyclopropa[4,5]cyclopenta[1,2-c]pyridine-6-carboxylic acid], for which the figures for the pEC50 on Human GPR40 [1] and on Human GPR40 [2] were 8.38 and 7.89, respectively.

As to `CS(=O)(=O)N1CC2(CN(c3ccc(-c4cc(COc5cc6c(cn5)[C@H]5[C@@H](C6)[C@@H]5C(=O)O)c(F)cc4C(F)(F)F)c(F)c3)C2)C1` [Compound-4, (5aR,6S,6aS)-3-((2′,4-difluoro-4′-(6-(methylsulfonyl)-2,6-diazaspiro[3,3]heptan-2-yl)-6-(trifluoromethyl)-[1,1′-biphenyl]-3-yl)methoxy)-5,5a,6,6a-tetrahydrocyclopropa[4,5]-cyclopenta[1,2-c]pyridine-6-carboxylic acid], the pEC50 is 8.00 on Human GPR40 [1] and 7.72 at Human GPR40 [2].
